Reference: ChEMBL document CHEMBL5252638, “Novel triphenylphosphonium amphiphilic conjugates of glycerolipid type: synthesis, cytotoxic and antibacterial activity, and targeted cancer cell delivery” (RSC Med Chem, 2023)

Columns and labels:
[1] = Cytotoxicity against human WI-38 cells assessed as number of viable cells measured after 48 hrs by MTT based colorimetric assay; assay type: toxicity, cell-based
Bacillus cereus [2] = experiment: Bactericidal activity against Bacillus cereus ATCC 10702 NCTC 8035 by serial microdilution method; assay type: functional
Homo sapiens [3] = species on record: Homo sapiens; experiment: Selectivity index, ratio of IC50 for human Chang liver cells to IC50 for human DU-145 cells
HepG2 = experiment: Cytotoxicity against human HepG2 cells assessed as number of viable cells measured after 48 hrs by MTT based colorimetric assay; assay type: functional, cell-based; settings: HepG2, 48 h
A549 = experiment: Cytotoxicity against human A549 cells assessed as number of viable cells measured after 48 hrs by MTT based colorimetric assay; assay type: functional, cell-based; settings: A549, 48 h
Staphylococcus aureus [4] = experiment: Antimicrobial activity against Staphylococcus aureus ATCC 6538 P FDA 209P by serial microdilution method; assay type: functional
Homo sapiens [5] = species on record: Homo sapiens; experiment: Selectivity index, ratio of IC50 for human Chang liver cells to IC50 for human MCF7 cells
T98G = experiment: Cytotoxicity against human T98G cells assessed as number of viable cells measured after 48 hrs by MTT based colorimetric assay; assay type: functional, cell-based
SK-OV-3 = experiment: Cytotoxicity against human SK-OV-3 cells assessed as number of viable cells measured after 48 hrs by MTT based colorimetric assay; assay type: functional, cell-based; settings: SK-OV-3, 48 h
Homo sapiens [6] = species on record: Homo sapiens; experiment: Selectivity index, ratio of IC50 for human Chang liver cells to IC50 for human HuTu80 cells
[7] = Cytotoxicity against human Chang liver cells assessed as number of viable cells measured after 48 hrs by MTT based colorimetric assay; assay type: toxicity, cell-based
Enterococcus faecalis [8] = experiment: Antimicrobial activity against Enterococcus faecalis ATCC 29212 by serial microdilution method; assay type: functional
M-HeLa = experiment: Cytotoxicity against human HelaM cells assessed as number of viable cells measured after 48 hrs by MTT based colorimetric assay; assay type: functional, cell-based
PC-3 = experiment: Cytotoxicity against human PC-3 cells assessed as number of viable cells measured after 48 hrs by MTT based colorimetric assay; assay type: functional, cell-based; settings: PC-3, 48 h
Homo sapiens [9] = species on record: Homo sapiens; experiment: Selectivity index, ratio of IC50 for human Chang liver cells to IC50 for human SK-OV-3 cells
DU-145 = experiment: Cytotoxicity against human DU-145 cells assessed as number of viable cells measured after 48 hrs by MTT based colorimetric assay; assay type: functional, cell-based; settings: DU-145, 48 h
Enterococcus faecalis [10] = experiment: Bactericidal activity against Enterococcus faecalis ATCC 29212 by serial microdilution method; assay type: functional
Staphylococcus aureus [11] = experiment: Bactericidal against Staphylococcus aureus ATCC 6538 P FDA 209P by serial microdilution method; assay type: functional
Homo sapiens [12] = species on record: Homo sapiens; experiment: Selectivity index, ratio of IC50 for human Chang liver cells to IC50 for human PC-3 cells
PANC-1 = experiment: Cytotoxicity against human PANC-1 cells assessed as number of viable cells measured after 48 hrs by MTT based colorimetric assay; assay type: functional, cell-based; settings: PANC-1, 48 h
Escherichia coli [13] = experiment: Antimicrobial activity against Escherichia coli ATCC 25922 by serial microdilution method; assay type: functional
Bacillus cereus [14] = experiment: Antimicrobial activity against Bacillus cereus ATCC 10702 NCTC 8035 by serial microdilution method; assay type: functional
Escherichia coli [15] = experiment: Bactericidal activity against Escherichia coli ATCC 25922 by serial microdilution method; assay type: functional
MCF7 = experiment: Cytotoxicity against human MCF7 cells assessed as number of viable cells measured after 48 hrs by MTT based colorimetric assay; assay type: functional, cell-based; settings: MCF7, 48 h
HuTu80 [16] = experiment: Cytotoxicity against human HuTu80 cells assessed as number of viable cells measured after 48 hrs by MTT based colorimetric assay; assay type: functional, cell-based; settings: HuTu80, 48 h
HuTu80 [17] = experiment: Induction of apoptosis in human HuTu80 cells assessed as late apoptotic cells at 10 uM incubated for 48 hrs by annexin V FITC/propidium iodide staining based flow cytometry analysis (reference value: 0.00%); assay type: functional
HuTu80 [18] = experiment: Induction of mitochondrial membrane potential loss in human HuTu80 cells assessed as J-monomer green fluorescence intensity at 10 uM incubated for 24 hrs by JC10 staining based flow cytometry method (reference value: 5.7%); assay type: functional
Homo sapiens [19] = species on record: Homo sapiens; experiment: Selectivity index, ratio of IC50 for human WI-38 cells to IC50 for human HuTu80 cells
HuTu80 [20] = experiment: Induction of apoptosis in human HuTu80 cells assessed as viable cells at 10 uM incubated for 48 hrs by annexin V FITC/propidium iodide staining based flow cytometry analysis (reference value: 93.71%); assay type: functional; settings: read-out: Activity
HuTu80 [21] = experiment: Induction of apoptosis in human HuTu80 cells assessed as viable cells at 5 uM incubated for 48 hrs by annexin V FITC/propidium iodide staining based flow cytometry analysis (reference value: 93.71%); assay type: functional; settings: read-out: Activity
HuTu80 [22] = experiment: Induction of cell cycle arrest in human HuTu80 cells assessed as accumulation of cell at S phase at 5 uM measured after 48 hrs by propidium iodide staining based analysis (reference value: 8.1%); assay type: functional
HuTu80 [23] = experiment: Induction of apoptosis in human HuTu80 cells assessed as early apoptotic cells at 10 uM incubated for 48 hrs by annexin V FITC/propidium iodide staining based flow cytometry analysis (reference value: 1.74%); assay type: functional
HuTu80 [24] = experiment: Induction of apoptosis in human HuTu80 cells assessed as necrotic cells at 10 uM incubated for 48 hrs by annexin V FITC/propidium iodide staining based flow cytometry analysis (reference value: 4.56%); assay type: functional
HuTu80 [25] = experiment: Induction of cell cycle arrest in human HuTu80 cells assessed as accumulation of cell at G2/M phase at 5 uM measured after 48 hrs by propidium iodide staining based analysis (reference value: 18.7%); assay type: functional
HuTu80 [26] = experiment: Induction of ROS production in human HuTu80 cells assessed as increase in fluorescence intensity at 10 uM measured after 48 hrs by flow cytometry based analysis (reference value: 380); assay type: functional
HuTu80 [27] = experiment: Induction of cell cycle arrest in human HuTu80 cells assessed as accumulation of cell at G2/M phase at 10 uM measured after 48 hrs by propidium iodide staining based analysis (reference value: 18.7%); assay type: functional
HuTu80 [28] = experiment: Induction of apoptosis in human HuTu80 cells assessed as necrotic cells at 5 uM incubated for 48 hrs by annexin V FITC/propidium iodide staining based flow cytometry analysis (reference value: 4.56%); assay type: functional
HuTu80 [29] = experiment: Induction of cell cycle arrest in human HuTu80 cells assessed as accumulation of cell at G1/G0 phase at 10 uM measured after 48 hrs by propidium iodide staining based analysis (reference value: 72%); assay type: functional
HuTu80 [30] = experiment: Induction of mitochondrial membrane potential loss in human HuTu80 cells assessed as J-aggregates red fluorescence intensity at 5 uM incubated for 24 hrs by JC10 staining based flow cytometry method (reference value: 94.4%); assay type: functional
HuTu80 [31] = experiment: Induction of mitochondrial membrane potential loss in human HuTu80 cells assessed as J-aggregates red fluorescence intensity at 10 uM incubated for 24 hrs by JC10 staining based flow cytometry method (reference value: 94.4%); assay type: functional
HuTu80 [32] = experiment: Induction of apoptosis in human HuTu80 cells assessed as early apoptotic cells at 5 uM incubated for 48 hrs by annexin V FITC/propidium iodide staining based flow cytometry analysis (reference value: 1.74%); assay type: functional
HuTu80 [33] = experiment: Induction of mitochondrial membrane potential loss in human HuTu80 cells assessed as J-monomer green fluorescence intensity at 5 uM incubated for 24 hrs by JC10 staining based flow cytometry method (reference value: 5.7%); assay type: functional
HuTu80 [34] = experiment: Induction of ROS production in human HuTu80 cells assessed as increase in fluorescence intensity at 5 uM measured after 48 hrs by flow cytometry based analysis (reference value: 380); assay type: functional
HuTu80 [35] = experiment: Induction of cell cycle arrest in human HuTu80 cells assessed as accumulation of cell at S phase at 10 uM measured after 48 hrs by propidium iodide staining based analysis (reference value: 8.1%); assay type: functional
HuTu80 [36] = experiment: Induction of apoptosis in human HuTu80 cells assessed as late apoptotic cells at 5 uM incubated for 48 hrs by annexin V FITC/propidium iodide staining based flow cytometry analysis (reference value: 0.00%); assay type: functional
HuTu80 [37] = experiment: Induction of cell cycle arrest in human HuTu80 cells assessed as accumulation of cell at G1/G0 phase at 5 uM measured after 48 hrs by propidium iodide staining based analysis (reference value: 72%); assay type: functional

CCCCC/C=C\C/C=C\CCCCCCCC(=O)OCC(COC(=O)CCCC[P+](c1ccccc1)(c1ccccc1)c1ccccc1)OC(=O)CCCC[P+](c1ccccc1)(c1ccccc1)c1ccccc1 (stereo unspecified)
IC50 at 48 h [1]: 41.1 µM | MBC (Bacillus cereus [2]): 500 µM | Ratio IC50 (Homo sapiens [3]): 1.5 | IC50 (HepG2): 64.5 µM | IC50 (A549): 70 µM | MIC (Staphylococcus aureus [4]): 3.2 µM | Ratio IC50 (Homo sapiens [5]): 1.8 | IC50 (T98G): 51.7 µM | IC50 (SK-OV-3): 39.4 µM | Ratio IC50 (Homo sapiens [6]): 5 | IC50 at 48 h [7]: 45 µM | MIC (Enterococcus faecalis [8]): 12.8 µM | IC50 (M-HeLa): 53.8 µM | IC50 (PC-3): 40.3 µM | Ratio IC50 (Homo sapiens [9]): 1.1 | IC50 (DU-145): 29.4 µM | MBC (Enterococcus faecalis [10]): 51.2 µM | MBC (Staphylococcus aureus [11]): 3.2 µM | Ratio IC50 (Homo sapiens [12]): 1.1 | IC50 (PANC-1): 46.7 µM | MIC (Escherichia coli [13]): 6.4 µM | MIC (Bacillus cereus [14]): 6.4 µM | MBC (Escherichia coli [15]): 12.8 µM | IC50 (MCF7): 24.7 µM | IC50 (HuTu80 [16]): 9 µM

CCCCCCCC/C=C\CCCCCCCC(=O)OCC(O)COC(=O)CCCC[P+](c1ccccc1)(c1ccccc1)c1ccccc1.[Br-] (stereo unspecified)
Activity (HuTu80 [17]): 33.13% | IC50 at 48 h [1]: 53.1 µM | MBC (Bacillus cereus [2]): 500 µM | Activity (HuTu80 [18]): 67.5% | Ratio IC50 (Homo sapiens [19]): 5.1 | viability at 10 µM (HuTu80 [20]): 37.6% | IC50 (HepG2): 100 µM | viability at 5 µM (HuTu80 [21]): 63.7% | Activity (HuTu80 [22]): 2.1% | Activity (HuTu80 [23]): 4.78% | IC50 (A549): 71.3 µM | Activity (HuTu80 [24]): 24.48% | MIC (Staphylococcus aureus [4]): 31.3 µM | IC50 (T98G): 62.5 µM | IC50 (SK-OV-3): 52 µM | Activity (HuTu80 [25]): 3% | IC50 at 48 h [7]: 34 µM | Flu intensity (HuTu80 [26]): 1500 | Activity (HuTu80 [27]): 1.1% | Activity (HuTu80 [28]): 17.73% | MIC (Enterococcus faecalis [8]): 7.8 µM | IC50 (M-HeLa): 60.2 µM | IC50 (PC-3): 51 µM | Activity (HuTu80 [29]): 87% | Activity (HuTu80 [30]): 51.1% | IC50 (DU-145): 41 µM | Activity (HuTu80 [31]): 30.1% | Activity (HuTu80 [32]): 3.35% | Activity (HuTu80 [33]): 49% | Flu intensity (HuTu80 [34]): 700 | MBC (Enterococcus faecalis [10]): 125 µM | Activity (HuTu80 [35]): 1.2% | MBC (Staphylococcus aureus [11]): 500 µM | Activity (HuTu80 [36]): 15.18% | IC50 (PANC-1): 62.5 µM | MIC (Escherichia coli [13]): 125 µM | MIC (Bacillus cereus [14]): 7.8 µM | MBC (Escherichia coli [15]): 125 µM | IC50 (MCF7): 52.1 µM | Activity (HuTu80 [37]): 84% | IC50 (HuTu80 [16]): 10 µM
